From PubChem BioAssay (NCI)
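96-well plates; 48 h exposure; 5 concentrations. Endpoints by linear interpolation between flanking doses. Not reached: highest tested concentration assigned. Definition used: TGI = concentration required for complete inhibition of growth.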

Key:
Test in all cases: NCI-60 cell line screen, 48 h
OVCAR-8 ovarian = test system: OVCAR-8 ovarian
UO-31 renal = test system: UO-31 renal
HS 578T breast = test system: HS 578T breast
LOX IMVI melanoma = test system: LOX IMVI melanoma
786-0 renal = test system: 786-0 renal
KM12 colon = test system: KM12 colon
SK-MEL-2 melanoma = test system: SK-MEL-2 melanoma
OVCAR-5 ovarian = test system: OVCAR-5 ovarian
RXF 393 renal = test system: RXF 393 renal
NCI-H23 lung = test system: NCI-H23 lung
SW-620 colon = test system: SW-620 colon
SK-MEL-5 melanoma = test system: SK-MEL-5 melanoma
A549 NSCLC = test system: A549 NSCLC
RPMI-8226 leukemia = test system: RPMI-8226 leukemia
EKVX NSCLC = test system: EKVX NSCLC
MDA-MB-435 = test system: MDA-MB-435
U251 CNS = test system: U251 CNS
IGROV1 ovarian = test system: IGROV1 ovarian
DU-145 prostate = test system: DU-145 prostate
SNB-19 CNS = test system: SNB-19 CNS
T-47D breast = test system: T-47D breast
HL-60(TB) leukemia = test system: HL-60(TB) leukemia
PC-3 prostate = test system: PC-3 prostate
ACHN renal = test system: ACHN renal
MOLT-4 leukemia = test system: MOLT-4 leukemia
SN12C renal = test system: SN12C renal
HT29 colon = test system: HT29 colon
CCRF-CEM leukemia = test system: CCRF-CEM leukemia
CAKI-1 renal = test system: CAKI-1 renal
HOP-92 NSCLC = test system: HOP-92 NSCLC
BT-549 breast = test system: BT-549 breast
MALME-3M melanoma = test system: MALME-3M melanoma
MDA-MB-231 breast = test system: MDA-MB-231 breast
M14 melanoma = test system: M14 melanoma
OVCAR-3 ovarian = test system: OVCAR-3 ovarian
HCT-116 colon = test system: HCT-116 colon
SNB-75 CNS = test system: SNB-75 CNS
OVCAR-4 ovarian = test system: OVCAR-4 ovarian
COLO 205 colon = test system: COLO 205 colon
HCT-15 colon = test system: HCT-15 colon
SF-268 CNS = test system: SF-268 CNS
NCI-H460 lung = test system: NCI-H460 lung
SK-MEL-28 melanoma = test system: SK-MEL-28 melanoma
A498 renal = test system: A498 renal
TK-10 renal = test system: TK-10 renal
K-562 leukemia = test system: K-562 leukemia
SF-539 CNS = test system: SF-539 CNS
SF-295 CNS = test system: SF-295 CNS
NCI-H226 lung = test system: NCI-H226 lung
MCF7 breast = test system: MCF7 breast
UACC-257 melanoma = test system: UACC-257 melanoma
MDA-N = test system: MDA-N
HCC-2998 colon = test system: HCC-2998 colon
NCI-H522 lung = test system: NCI-H522 lung
NCI/ADR-RES ovarian = test system: NCI/ADR-RES ovarian
HOP-62 NSCLC = test system: HOP-62 NSCLC
UACC-62 melanoma = test system: UACC-62 melanoma
SK-OV-3 ovarian = test system: SK-OV-3 ovarian

SMILES: COc1cc(C(=O)N(C)N(C)C)cc(OC)c1OC
- TGI (OVCAR-8 ovarian): > 10000 nM
- TGI (UO-31 renal): > 10000 nM
- TGI (HS 578T breast): > 10000 nM
- TGI (LOX IMVI melanoma): > 10000 nM
- TGI (786-0 renal): > 10000 nM
- TGI (KM12 colon): > 10000 nM
- TGI (SK-MEL-2 melanoma): > 10000 nM
- TGI (OVCAR-5 ovarian): > 10000 nM
- TGI (RXF 393 renal): > 10000 nM
- TGI (NCI-H23 lung): > 10000 nM
- TGI (SW-620 colon): > 10000 nM
- TGI (SK-MEL-5 melanoma): > 10000 nM
- TGI (A549 NSCLC): > 10000 nM
- TGI (RPMI-8226 leukemia): > 10000 nM
- TGI (EKVX NSCLC): > 10000 nM
- TGI (MDA-MB-435): > 10000 nM
- TGI (U251 CNS): > 10000 nM
- TGI (IGROV1 ovarian): > 10000 nM
- TGI (DU-145 prostate): > 10000 nM
- TGI (SNB-19 CNS): > 10000 nM
- TGI (T-47D breast): > 10000 nM
- TGI (HL-60(TB) leukemia): > 10000 nM
- TGI (PC-3 prostate): > 10000 nM
- TGI (ACHN renal): > 10000 nM
- TGI (MOLT-4 leukemia): > 10000 nM
- TGI (SN12C renal): > 10000 nM
- TGI (HT29 colon): > 10000 nM
- TGI (CCRF-CEM leukemia): > 10000 nM
- TGI (CAKI-1 renal): > 10000 nM
- TGI (HOP-92 NSCLC): > 10000 nM
- TGI (BT-549 breast): > 10000 nM
- TGI (MALME-3M melanoma): > 10000 nM
- TGI (MDA-MB-231 breast): > 10000 nM
- TGI (M14 melanoma): > 10000 nM
- TGI (OVCAR-3 ovarian): > 10000 nM
- TGI (HCT-116 colon): > 10000 nM
- TGI (SNB-75 CNS): > 10000 nM
- TGI (OVCAR-4 ovarian): > 10000 nM
- TGI (COLO 205 colon): > 10000 nM
- TGI (HCT-15 colon): > 10000 nM
- TGI (SF-268 CNS): > 10000 nM
- TGI (NCI-H460 lung): > 10000 nM
- TGI (SK-MEL-28 melanoma): > 10000 nM
- TGI (A498 renal): > 10000 nM
- TGI (TK-10 renal): > 10000 nM
- TGI (K-562 leukemia): > 10000 nM
- TGI (SF-539 CNS): > 10000 nM
- TGI (SF-295 CNS): > 10000 nM
- TGI (NCI-H226 lung): > 10000 nM
- TGI (MCF7 breast): > 10000 nM
- TGI (UACC-257 melanoma): > 10000 nM
- TGI (MDA-N): > 10000 nM
- TGI (HCC-2998 colon): > 10000 nM
- TGI (NCI-H522 lung): > 10000 nM
- TGI (NCI/ADR-RES ovarian): > 10000 nM
- TGI (HOP-62 NSCLC): > 10000 nM
- TGI (UACC-62 melanoma): > 10000 nM
- TGI (SK-OV-3 ovarian): > 10000 nM

SMILES: Cc1cccc2c(NCCCN(C)C)c3c([N+](=O)[O-])ccc(C)c3nc12
- TGI (OVCAR-8 ovarian): 1580 nM
- TGI (UO-31 renal): 492 nM
- TGI (HS 578T breast): 2960 nM
- TGI (LOX IMVI melanoma): 607 nM
- TGI (786-0 renal): 573 nM
- TGI (KM12 colon): 3230 nM
- TGI (SK-MEL-2 melanoma): 285 nM
- TGI (OVCAR-5 ovarian): 744 nM
- TGI (RXF 393 renal): 190 nM
- TGI (NCI-H23 lung): 160 nM
- TGI (SW-620 colon): 6000 nM
- TGI (SK-MEL-5 melanoma): 251 nM
- TGI (A549 NSCLC): 778 nM
- TGI (RPMI-8226 leukemia): 3170 nM
- TGI (EKVX NSCLC): 360 nM
- TGI (MDA-MB-435): 492 nM
- TGI (U251 CNS): 741 nM
- TGI (IGROV1 ovarian): 666 nM
- TGI (DU-145 prostate): 651 nM
- TGI (SNB-19 CNS): 2020 nM
- TGI (T-47D breast): 758 nM
- TGI (HL-60(TB) leukemia): 1390 nM
- TGI (PC-3 prostate): 259 nM
- TGI (ACHN renal): 332 nM
- TGI (MOLT-4 leukemia): 1150 nM
- TGI (SN12C renal): 948 nM
- TGI (HT29 colon): 1390 nM
- TGI (CCRF-CEM leukemia): > 100000 nM
- TGI (CAKI-1 renal): 2610 nM
- TGI (HOP-92 NSCLC): 416 nM
- TGI (BT-549 breast): 858 nM
- TGI (MALME-3M melanoma): 375 nM
- TGI (MDA-MB-231 breast): 601 nM
- TGI (M14 melanoma): 297 nM
- TGI (OVCAR-3 ovarian): 357 nM
- TGI (HCT-116 colon): 821 nM
- TGI (SNB-75 CNS): 491 nM
- TGI (OVCAR-4 ovarian): 554 nM
- TGI (COLO 205 colon): 218 nM
- TGI (HCT-15 colon): 592 nM
- TGI (SF-268 CNS): 1480 nM
- TGI (NCI-H460 lung): 141 nM
- TGI (SK-MEL-28 melanoma): 5870 nM
- TGI (A498 renal): 26.9 nM
- TGI (TK-10 renal): 709 nM
- TGI (K-562 leukemia): 3940 nM
- TGI (SF-539 CNS): 1120 nM
- TGI (SF-295 CNS): 451 nM
- TGI (NCI-H226 lung): 458 nM
- TGI (MCF7 breast): 173 nM
- TGI (UACC-257 melanoma): 400 nM
- TGI (MDA-N): 498 nM
- TGI (HCC-2998 colon): < 45.4 nM
- TGI (NCI-H522 lung): 120 nM
- TGI (NCI/ADR-RES ovarian): 3370 nM
- TGI (HOP-62 NSCLC): 265 nM
- TGI (UACC-62 melanoma): 284 nM
- TGI (SK-OV-3 ovarian): 982 nM
